# Experiments:
# [1] = oral, with high-intensity periodized resistance training; cited from earlier work
# pH of buffer media = format: physicochemical; conditions: room temperature
# Excerpt: Crea-Trona® is also known as buffered creatine. During the fabrication process, AlzChem uses a double buffer from sodium carbonate and sodium bi-carbonate, both natural minerals, which creates an alkaline environment with a pH value between 8 and 12. Crea-Trona is more efficient than other types of creatine, including those with an alkaline pH-buffer (kre-alkalynes). The double buffer prevents the pH-value in the muscles from dropping rapidly during the workout. This may lead to a larger training volume and may stimulate faster recovery of the original pH-value after the workout.
# To maximize the benefits of oral administration of agmatine salts according to embodiments of the present disclosure, a buffer media may be used in formulations, or a stable mono-protonated or neutral form of such agmatine salts should be administered instead. As reflected in the formulations described above according to embodiments of the present disclosure, different buffer media have been used including Crea-Trona (such as that offered by AlzChem), arginine base, as well as Effer-Soda (such as that offered by SPI Pharma). However, it should be appreciated that other buffer media, such as potassium carbonate or potassium bicarbonate, may be utilized without departing from the present disclosure. Such buffer media may elevate the pH of the formulation. […]
# [2] = approximately 150 g over three days, oral; cited from earlier work
# [3] = 300 mg daily for 6 weeks, young healthy trained athletes; cited from earlier work
# [4] = pH of 1% agmatine salt solutions in purified water at room temperature; format: physicochemical; conditions: 1% in purified water
# Excerpt: Compounds and formulations according to embodiments of the present disclosure may provide a method to increase cellular uptake of agmatine in an animal or human. It should be appreciated that agmatine uptake may increase dramatically with increasing pH, and protonation of the amino group of agmatine is dependent on pH. The guanidinium group in agmatine has a pH of about 12.5 in aqueous solution while the amino group in agmatine has a pH of about 9. At the physiological pH, agmatine may be protonated and thus, requires transporters for uptake into the cells to occur. The fraction of the molecules having a single positive charge may increase as pH increases. […] This is reflected in FIGS. 1 and 2.
# [5] = Titration of 1% agmatine salt solutions with aqueous 0.1N HCl; format: physicochemical; conditions: 1% solution titrated with 0.1N HCl
# Protocol: FIG. 1 depicts a graphical representation of 1% agmatine salt solutions in a titration with an aqueous 0.1N HCl solution according to an embodiment of the present disclosure;
# (§1) The pH dependence has been evaluated in acidic as well as basic conditions. […] About 15 mL of 0.1N HCl may be used to lower the pH of agmatine phosphate at around 3 while other agmatine salts, at the same concentration and in the same measuring conditions, required approximately 2-4 mL to change to an acidic pH. The same kind of behavior was observed when solutions of agmatine salts were titrated with a solution of agmatine base. About 20 mL were required to make the pH alkaline (above 8) in the case of agmatine phosphate, while other agmatine salts required approximately 2-3 mL to achieve the same pH range. Taking these observations into consideration along with the fact that better uptake of agmatine is observed at a higher pH, it should be appreciated that agmatine dihydrochloride and agmatine phosphate may be more desirable agmatine salts than agmatine sulfate for improving bioavailability of orally administered agmatine.
# [6] = Titration of 1% agmatine salt solutions with 5% aqueous arginine base; format: physicochemical; conditions: 1% solution titrated with 5% arginine base, room temperature
# Protocol: FIG. 2 depicts a graphical representation of 1% agmatine salt solutions in a titration with an 5% aqueous arginine base solution at room temperature according to an embodiment of the present disclosure;
# as §1
# [7] = cited from earlier work
# [8] = concentration of 1 mM; cited from earlier work
# rat = rat experimental model; cited from earlier work
# [9] = prior intake, trained young men; cited from earlier work
structure (smiles),measurement,setting,value
"Nc1ncnc2c1ncn2[C@@H]1O[C@H](COP(=O)(O)OP(=O)(O)OP(=O)(O)O)[C@@H](O)[C@H]1O [ATP, adenosine triphosphate]","Muscle mass, strength, and power compared with placebo-matched control",[1],"increases muscle mass, strength, and power"
"N=C(N)NCCC[C@H](N)C(=O)O [Arginine base, arginine]",pH of arginine base in solution,pH of buffer media,around 10
O=C[C@H](O)[C@H](O)[C@H](O)CO [D-ribose],Rate of ATP replenishment over three days of rest compared to placebo sugar (maltodextrin),[2],greater
"COc1c(O)c(C)c(C/C=C(\C)CC/C=C(\C)CC/C=C(\C)CC/C=C(\C)CC/C=C(\C)CC/C=C(\C)CC/C=C(\C)CC/C=C(\C)CC/C=C(\C)CCC=C(C)C)c(O)c1OC [Ubiquinol, ubiquinol]",Maximum power output versus placebo,[3],+0.08 W/kg bw
same,"Maximum power output versus placebo, relative change",[3],+2.5%
Cl.Cl.N=C(N)NCCCCN [agmatine dihydrochloride],pH of 1% agmatine salt solution,[4],6.4
N=C(N)NCCCCN.O=P(O)(O)O [agmatine phosphate],pH of 1% agmatine salt solution,[4],5.7
same,Volume of 0.1N HCl used to lower the pH to around 3 (acidic pH),[5],About 15 mL
same,Volume of base solution required to make the pH alkaline (above 8),[6],About 20 mL
"N=C(N)NCCCCN.O=S(=O)(O)O [agmatine sulfate, reference compound]",pH of 1% agmatine salt solution,[4],4.8
"N=C(N)NCCCCN [agmatine, (4-aminobutyl)guanidine]",pKa value of the guanadino group,[7],12.5
same,Cytotoxic effects,[8],no cytotoxic effects
same,Lethal dose,rat,1 to 10 mg/kg
O=C([O-])O.[Na+] [sodium bicarbonate],High-intensity intermittent exercise performance,[9],improved

# Reference: patent US9993447B2, “Systems and methods for increasing agmatine cellular uptake by oral administration” (priority 2015, dated 2018)
